Data reported in ChEMBL document CHEMBL3813605, “Jatrophane and ingenane-type diterpenoids from Euphorbia kansui inhibit the LPS-induced NO production in RAW 264.7 cells” (Bioorg Med Chem Lett, 2016).

Tests used:
RAW264.7 [1] = assay: Antiinflammatory activity in mouse RAW264.7 cells assessed as inhibition of LPS-induced NO production incubated for 24 hrs by Griess method; type: functional, cell-based; conditions: RAW264.7, 24 h
RAW264.7 [2] = assay: Cytotoxicity against mouse RAW264.7 cells assessed as reduction in cell viability by MTT assay; type: cell-based

Structure (SMILES): CC1=C[C@@H]2C(=O)[C@]3(C=C(C)[C@H](OC(=O)c4ccccc4)[C@@]3(O)[C@@H]1O)[C@H](C)C[C@@H]1[C@H]2C1(C)C
- IC50 (RAW264.7 [1]): 16 µM
- Activity (RAW264.7 [2]): Non-toxic

Structure (SMILES): CC1=C[C@]23C(=O)[C@@H](C=C(CO)[C@@H](O)[C@]2(O)[C@H]1O)[C@H]1[C@@H](C[C@H]3C)C1(C)C [INGENOL]
- IC50 (RAW264.7 [1]): > 100 µM
- Activity (RAW264.7 [2]): Non-toxic

Structure (SMILES): CCCCC/C=C\C=C\C(=O)O[C@@H]1C(COC(C)=O)=C[C@@H]2C(=O)[C@]3(C=C(C)[C@H](O)[C@@]13O)[C@H](C)C[C@@H]1[C@H]2C1(C)C
- IC50 (RAW264.7 [1]): 10.1 µM
- Activity (RAW264.7 [2]): Non-toxic

Structure (SMILES): CC(=O)O[C@H]1C(C)=C[C@]23C(=O)[C@@H](C=C(CO)[C@@H](OC(=O)c4ccccc4)[C@]12O)[C@H]1[C@@H](C[C@H]3C)C1(C)C
- IC50 (RAW264.7 [1]): 29.5 µM
- Activity (RAW264.7 [2]): Non-toxic

Structure (SMILES): C=C1[C@H](OC(=O)c2ccccc2)[C@H]2[C@@H](OC(C)=O)[C@](C)(O)[C@@H](O)[C@]2(OC(C)=O)C(=O)[C@@H](C)/C=C/C(C)(C)C(=O)[C@H](O)[C@H]1OC(=O)c1ccccc1
- IC50 (RAW264.7 [1]): 46.5 µM
- Activity (RAW264.7 [2]): Non-toxic

Structure (SMILES): CC(=O)OCC1=C[C@@H]2C(=O)[C@]3(C=C(C)[C@H](O)[C@@]3(O)[C@@H]1O)[C@H](C)C[C@@H]1[C@H]2C1(C)C
- IC50 (RAW264.7 [1]): > 100 µM
- Activity (RAW264.7 [2]): Non-toxic

Structure (SMILES): CCCCC/C=C/C=C/C(=O)O[C@@H]1C(COC(C)=O)=C[C@@H]2C(=O)[C@]3(C=C(C)[C@H](O)[C@@]13O)[C@H](C)C[C@@H]1[C@H]2C1(C)C
- IC50 (RAW264.7 [1]): 7.6 µM
- Activity (RAW264.7 [2]): Non-toxic

Structure (SMILES): C=C1[C@@H](OC(C)=O)[C@@H](OC(=O)c2ccccc2)[C@@H](OC(C)=O)C(C)(C)[C@H]2O[C@](O)([C@H](C)C2=O)[C@@]2(OC(C)=O)C[C@H](C)[C@H](OC(C)=O)[C@@H]2[C@H]1OC(C)=O
- IC50 (RAW264.7 [1]): 2.9 µM
- Activity (RAW264.7 [2]): Non-toxic

Structure (SMILES): C=C1[C@H](OC(=O)c2ccccc2)[C@H]2[C@@H](OC(C)=O)[C@](C)(O)[C@@H](OC(C)=O)[C@]2(O)C(=O)[C@@H](C)/C=C/C(C)(C)C(=O)[C@H](OC(C)=O)[C@H]1OC(=O)c1ccccc1
- IC50 (RAW264.7 [1]): 16.4 µM
- Activity (RAW264.7 [2]): Non-toxic

Structure (SMILES): C=C1[C@@H](OC(C)=O)[C@@H](OC(=O)c2ccccc2)[C@@H](OC(=O)c2cccnc2)C(C)(C)[C@H]2O[C@](O)([C@H](C)C2=O)[C@@]2(OC(C)=O)C[C@H](C)[C@H](OC(C)=O)[C@@H]2[C@H]1OC(C)=O
- IC50 (RAW264.7 [1]): 22.1 µM
- Activity (RAW264.7 [2]): Non-toxic

Structure (SMILES): C=C1[C@H](OC(C)=O)[C@@H](OC(=O)c2ccccc2)[C@H](OC(=O)c2cccnc2)C(C)(C)[C@H]2O[C@@H]2[C@@H](C)C(=O)[C@@]2(OC(C)=O)C[C@H](C)[C@H](OC(C)=O)[C@@H]2[C@H]1OC(C)=O
- IC50 (RAW264.7 [1]): 6.3 µM
- Activity (RAW264.7 [2]): Non-toxic

Structure (SMILES): CC1=C[C@@H]2C(=O)[C@]3(C=C(C)[C@H](O)[C@@]3(O)[C@@H]1OC(=O)c1ccccc1)[C@H](C)C[C@@H]1[C@H]2C1(C)C
- IC50 (RAW264.7 [1]): 3.1 µM
- Activity (RAW264.7 [2]): Non-toxic

Structure (SMILES): CCCCC/C=C\C=C\C(=O)O[C@H]1C(C)=C[C@]23C(=O)[C@@H](C=C(C)[C@@H](O)[C@]12O)[C@H]1[C@@H](C[C@H]3C)C1(C)C
- IC50 (RAW264.7 [1]): 14.1 µM
- Activity (RAW264.7 [2]): Non-toxic

Structure (SMILES): CCCCC/C=C\C=C\C(=O)O[C@H]1C(C)=C[C@]23C(=O)[C@@H](C=C(COC(C)=O)[C@@H](O)[C@]12O)[C@H]1[C@@H](C[C@H]3C)C1(C)C
- IC50 (RAW264.7 [1]): 5.1 µM
- Activity (RAW264.7 [2]): Non-toxic

Structure (SMILES): N=C(N)NN [PIMAGEDINE]
- IC50 (RAW264.7 [1]): 18.7 µM

Structure (SMILES): C=C1[C@@H](OC(C)=O)[C@@H](OC(=O)c2ccccc2)[C@@H](OC(C)=O)C(C)(C)[C@H]2O[C@](O)([C@H](C)C2=O)[C@@]2(OC(C)=O)C[C@@](C)(O)[C@H](OC(C)=O)[C@@H]2[C@H]1OC(C)=O
- IC50 (RAW264.7 [1]): 50.2 µM
- Activity (RAW264.7 [2]): Non-toxic

Structure (SMILES): CCCCC/C=C/C=C/C(=O)O[C@H]1C(C)=C[C@]23C(=O)[C@@H](C=C(COC(C)=O)[C@@H](O)[C@]12O)[C@H]1[C@@H](C[C@H]3C)C1(C)C
- IC50 (RAW264.7 [1]): 0.7 µM
- Activity (RAW264.7 [2]): Non-toxic
